{
  "source": "patent US20250177481A1",
  "about": "“SCO-spondin-derived polypeptides for enhancing synaptic transmission” (AXOLTIS PHARMA, priority 2021, published 2025)",
  "key": {"[1]": {"tested_on": "NMDA EPSCs in hippocampal CA1 pyramidal neurons", "test": "patch-clamp phase 0: sequential application of NVP-AAM077 and Ifenprodil on NMDA EPSCs", "assay_type": "cell-based, C57Bl6/J mice", "details": "3 cells, data not shown", "experimental": "Twelve (C57Bl6/J) male mice 4-5 weeks-old were obtained from Charles River, France and housed in an animal facility. Animal care was compliant with national and local Ethics committee recommendations. Sagittal hippocampal brain slices were obtained using standard brain slicing methods (approximately 6 slices per mouse) (Knobloch et al. 2007). Mice were anesthetized with isoflurane and then decapitated. […] Acute slices (350 μm thick) were prepared using a vibratome (VT 1000S; Leica Microsystems, Bannockburn, IL). Sections were incubated in standard aCSF at room temperature for at least 1 h before recordings. […] Recordings were acquired using Clampex 10 (Molecular Devices) and analyzed with Clampfit (Molecular Devices). […] A total of 23 neurons were recorded (10 per group (phases 1 and 2) and 3 in a control phase (phase 0) as follow. In each recording session, 10 EPSCs were induced in response to Schaffer collateral stimulations. Measurements of the amplitudes (average of 10 EPCS) were assessed. Phase 0 represented a validation phase aiming at confirming that GluN2A and GluN2B were the predominant NR2 subunits involved in the EPSCs evoked by Schaffer collateral stimulation. We expected the residual current at the end of phase 0 to be minimal."}, "[2]": {"molecular_target": "T1, GluN2A subunit of NMDAR (isolated evoked NMDAR currents in CA1 hippocampal neurons) (Mus musculus, UniProt P35436)", "T1 construct": "Sagittal hippocampal brain slices were obtained using standard brain slicing methods; from tissue; host or cells: acute hippocampal slices of C57Bl6/J mice, CA1 pyramidal neurons", "T1 sequence (P35436 23-1464, other chains not shown)": "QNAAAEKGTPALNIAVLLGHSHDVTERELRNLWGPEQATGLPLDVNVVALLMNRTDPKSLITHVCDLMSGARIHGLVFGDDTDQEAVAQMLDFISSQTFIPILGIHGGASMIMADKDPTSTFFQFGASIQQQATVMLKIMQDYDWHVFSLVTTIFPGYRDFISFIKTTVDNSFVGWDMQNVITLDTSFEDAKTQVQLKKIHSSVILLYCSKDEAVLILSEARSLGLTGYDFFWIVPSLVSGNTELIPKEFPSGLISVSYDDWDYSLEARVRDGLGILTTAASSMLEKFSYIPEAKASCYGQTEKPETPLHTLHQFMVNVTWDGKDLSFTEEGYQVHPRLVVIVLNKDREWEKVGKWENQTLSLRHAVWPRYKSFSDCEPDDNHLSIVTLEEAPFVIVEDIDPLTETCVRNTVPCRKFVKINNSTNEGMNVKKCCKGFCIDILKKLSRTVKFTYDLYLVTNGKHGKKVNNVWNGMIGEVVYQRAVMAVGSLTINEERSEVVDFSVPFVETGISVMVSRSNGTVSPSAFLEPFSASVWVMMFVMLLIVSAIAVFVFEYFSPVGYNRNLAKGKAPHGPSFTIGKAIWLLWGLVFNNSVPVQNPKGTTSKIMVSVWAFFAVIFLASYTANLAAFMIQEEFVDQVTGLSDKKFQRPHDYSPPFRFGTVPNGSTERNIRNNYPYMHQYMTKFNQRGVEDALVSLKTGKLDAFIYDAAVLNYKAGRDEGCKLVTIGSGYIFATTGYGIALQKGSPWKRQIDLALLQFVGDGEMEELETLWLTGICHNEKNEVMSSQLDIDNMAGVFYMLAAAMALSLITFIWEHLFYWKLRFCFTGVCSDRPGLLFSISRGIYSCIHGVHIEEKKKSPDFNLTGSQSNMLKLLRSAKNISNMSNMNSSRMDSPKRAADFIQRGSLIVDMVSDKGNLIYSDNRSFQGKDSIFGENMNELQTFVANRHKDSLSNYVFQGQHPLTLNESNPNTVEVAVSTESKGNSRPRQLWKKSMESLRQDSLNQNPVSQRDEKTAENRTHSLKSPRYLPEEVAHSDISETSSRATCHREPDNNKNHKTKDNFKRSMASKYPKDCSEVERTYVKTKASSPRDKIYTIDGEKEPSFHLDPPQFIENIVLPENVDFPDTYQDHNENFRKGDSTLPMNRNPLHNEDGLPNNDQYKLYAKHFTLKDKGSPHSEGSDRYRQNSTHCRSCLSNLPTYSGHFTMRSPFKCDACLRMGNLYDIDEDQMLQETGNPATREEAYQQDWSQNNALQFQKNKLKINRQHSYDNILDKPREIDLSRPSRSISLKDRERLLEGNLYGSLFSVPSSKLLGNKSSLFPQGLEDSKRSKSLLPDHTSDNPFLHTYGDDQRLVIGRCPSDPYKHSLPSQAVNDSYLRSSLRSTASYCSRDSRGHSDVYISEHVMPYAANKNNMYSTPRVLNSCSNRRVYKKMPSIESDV", "test": "patch-clamp phase 1: NMDAR EPSCs with GluN2B subunits blocked by Ifenprodil", "assay_type": "cell-based, C57Bl6/J mice", "details": "Ifenprodil 3 μM alone; control = 100; mean of 10 cells", "from_the_text": "(§1) Selective antagonists of GluN2A and GluN2B subunits were also used.\n(§2) Twelve (C57Bl6/J) male mice 4-5 weeks-old were obtained from Charles River, France and housed in an animal facility. Animal care was compliant with national and local Ethics committee recommendations. Sagittal hippocampal brain slices were obtained using standard brain slicing methods (approximately 6 slices per mouse) (Knobloch et al. 2007). Mice were anesthetized with isoflurane and then decapitated. […]\n(§3) The signal was amplified with an Axopatch 200B amplifier (Molecular Devices, Union City, CA), digitized by a Digidata 1550 interface (Molecular Devices). Recordings were acquired using Clampex 10 (Molecular Devices) and analyzed with Clampfit (Molecular Devices). […]\n(§4) A total of 12 mice was dedicated to the study. A total of 23 neurons were recorded (10 per group (phases 1 and 2) and 3 in a control phase (phase 0) as follow. In each recording session, 10 EPSCs were induced in response to Schaffer collateral stimulations. Measurements of the amplitudes (average of 10 EPCS) were assessed. Phase 0 represented a validation phase aiming at confirming that GluN2A and GluN2B were the predominant NR2 subunits involved in the EPSCs evoked by Schaffer collateral stimulation. We expected the residual current at the end of phase 0 to be minimal."}, "[3]": {"molecular_target": "T2, GluN2B subunit of NMDAR (isolated evoked NMDAR currents in CA1 hippocampal neurons) (Mus musculus, UniProt Q01097)", "T2 construct": "Sagittal hippocampal brain slices were obtained using standard brain slicing methods; from tissue; host or cells: acute hippocampal slices of C57Bl6/J mice, CA1 pyramidal neurons", "T2 sequence (Q01097 27-1482, other chains not shown)": "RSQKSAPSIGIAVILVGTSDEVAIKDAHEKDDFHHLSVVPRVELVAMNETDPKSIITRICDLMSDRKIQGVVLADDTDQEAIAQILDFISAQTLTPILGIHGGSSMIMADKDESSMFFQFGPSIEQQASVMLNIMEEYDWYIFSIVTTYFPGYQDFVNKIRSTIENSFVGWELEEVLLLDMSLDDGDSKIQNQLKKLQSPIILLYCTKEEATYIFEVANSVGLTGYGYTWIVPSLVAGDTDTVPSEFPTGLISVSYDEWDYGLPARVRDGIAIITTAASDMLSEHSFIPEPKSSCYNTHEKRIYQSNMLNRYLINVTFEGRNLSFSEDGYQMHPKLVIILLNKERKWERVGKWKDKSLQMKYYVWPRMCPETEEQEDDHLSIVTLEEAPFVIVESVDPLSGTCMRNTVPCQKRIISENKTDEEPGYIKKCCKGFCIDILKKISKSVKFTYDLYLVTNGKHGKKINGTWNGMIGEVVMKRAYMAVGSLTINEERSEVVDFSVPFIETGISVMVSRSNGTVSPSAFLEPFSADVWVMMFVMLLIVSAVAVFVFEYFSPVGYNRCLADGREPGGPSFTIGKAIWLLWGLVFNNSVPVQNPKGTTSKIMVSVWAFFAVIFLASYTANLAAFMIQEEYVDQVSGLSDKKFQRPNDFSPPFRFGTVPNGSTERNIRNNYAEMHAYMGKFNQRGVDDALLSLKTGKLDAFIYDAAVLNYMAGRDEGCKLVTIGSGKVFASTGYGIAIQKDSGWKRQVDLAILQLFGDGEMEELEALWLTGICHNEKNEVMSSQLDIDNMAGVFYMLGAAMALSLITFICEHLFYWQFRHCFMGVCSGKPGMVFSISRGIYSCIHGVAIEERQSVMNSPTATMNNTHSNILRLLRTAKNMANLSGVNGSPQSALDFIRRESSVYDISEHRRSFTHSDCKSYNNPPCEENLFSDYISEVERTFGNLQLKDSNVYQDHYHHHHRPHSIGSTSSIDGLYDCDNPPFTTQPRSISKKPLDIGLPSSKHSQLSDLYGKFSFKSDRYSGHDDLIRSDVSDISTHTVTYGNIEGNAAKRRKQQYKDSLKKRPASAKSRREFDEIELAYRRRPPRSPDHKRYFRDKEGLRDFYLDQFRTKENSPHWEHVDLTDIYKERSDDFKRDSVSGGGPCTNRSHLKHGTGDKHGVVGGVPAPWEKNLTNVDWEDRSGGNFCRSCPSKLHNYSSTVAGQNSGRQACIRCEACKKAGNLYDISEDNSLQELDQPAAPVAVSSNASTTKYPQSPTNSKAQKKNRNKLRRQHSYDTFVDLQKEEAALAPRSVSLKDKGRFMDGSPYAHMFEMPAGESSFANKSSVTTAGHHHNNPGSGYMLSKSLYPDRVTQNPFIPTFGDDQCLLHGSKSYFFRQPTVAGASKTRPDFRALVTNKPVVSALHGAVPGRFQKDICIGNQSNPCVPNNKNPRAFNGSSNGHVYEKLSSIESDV", "test": "patch-clamp phase 2: NMDAR EPSCs with GluN2A subunits blocked by NVP-AAM077", "assay_type": "cell-based, C57Bl6/J mice", "details": "NVP-AAM077 0.4 μM alone; control = 100; mean of 10 cells", "from_the_text": "as §1, §2, §3, §4"}, "[4]": {"tested_on": "subchronic PCP-induced cognitive deficits in mice", "test": "T-maze continuous alternation task in subchronic PCP mice", "assay_type": "in vivo, Swiss CD-1 mice", "details": "n=10", "from_the_text": "Phenycyclidine (PCP) is an antagonist of NMDA receptor, its administration in healthy humans produces schizophrenia-like symptoms, therefore PCP is often used to mimic schizophrenia in rodents. […] In addition, brain samples were collected shorlty after the T-Maze test to measure the levels of cerebral biomarkers involved in synaptic plasticity.\nSixty (60) male Swiss CD-1 mice were purchased from Janvier Labs (Le Genest-Saint-Isle, France) one week before the start of the study for acclimation. Mice were group-housed (6-8 mice per Eurostandard type Ill cage) and maintained in a room with controlled temperature (21-22° C.) under a reversed 12 h/12 h light-dark cycle (lights on: 5:[…]; lights off: 05:30 am) with food and water available ad libitum. The weight of mice ranged from 25.9 and 36.4 g. […]\nNicotine used as a positive control was administered at a dose of 0.4 mg/kg intraperitoneally 30 minutes prior to the T-maze trial\nAfter administration of compounds at different timepoints all animals were tested for continuous alternation task in the T-Maze. The T-maze apparatus was made of gray Plexiglas with a main stem (55-cm long×10-cm wide×20-cm high) and two arms (30-cm long×10-cm wide×20-cm high) positioned at a 90-degree angle relative to the main stem. A start box (15-cm long×10-cm wide) was separated from the main stem by a guillotine door. Horizontal doors were also provided to close specific arms during the force choice alternation task. The experimental protocol consisted in one single session that started with 1 “forced-choice” trial, followed by 14 “free-choice” trials (Gerlai, 1998). In the first “forced-choice” trial, the mouse was confined 5 s in the start arm and then released while either the left or right goal arm was blocked by closing the sliding door. Then, it walked through the maze, eventually entered the open goal arm, and then returned to the start position. Immediately after the mouse came back to the start position, the left or right goal door was opened (i.e. the two goal doors were opened), and the mouse could choose freely between the left and right goal arms (first “free choice trial”). The mouse was considered as entered in the arm when it placed its four paws in the arm. The opposite goal door was then closed until the animal returned to the start arm. Then, a second “free choice trial” began by the opening of the closed goal door (i.e. the two goal doors were opened), leaving the choice to the mouse to enter either into the right or the left arm. The session was considered finished as soon as 14 free-choice trials had been performed in less than 10 min, and the mouse was removed from the maze. The time needed to reach these 14 “free-choices” was recorded.\nThe percent of spontaneous alternations was calculated as number of spontaneous alternations divided by the number of free-choice trials, an index of spatial short-term working memory. The apparatus was cleaned between each animal using alcohol (70%). Urine and feces were removed from the maze. During the trials, animal handling and the visibility of the operator were minimized as much as possible. Animals were tested in a random and blind manner."}, "[5]": {"tested_on": "scopolamine-induced spatial short-term working memory deficits in mice", "test": "Y-maze spontaneous alternation in the scopolamine mouse model of amnesia", "assay_type": "in vivo, Swiss mice", "details": "for spontaneous alternance in Y-maze: n=6; for effect on scopolamine-induced spatial short-term working memory impairments (Y-maze): data not shown", "experimental": "Male Swiss mice, weighing 30-35 g, from JANVIER (Saint Berthevin, France), were housed in groups with access to food and water ad libitum, except during behavioral experiments. They were kept in a temperature and humidity-controlled animal facility on a 12 h/12 h light/dark cycle (lights off at 07:[…]). Mice were numbered by marking their tail with permanent markers. All animal procedures were conducted in strict adherence to the European Union directive of Sep. 22, 2010 (2010/63/UE). In each cage (n=6 per cage), treatment regimen was the same. Animals were tested in a random and blind manner.\nDonepezil (DPZ) used as positive control was administered per os at a dose of 1 mg/kg once 1 h before the YM test.\nScopolamine was administered at a dose of 0.5 mg/kg by subcutaneous injection 30 minutes before the YM session.\nAfter administration of compounds at different timepoints all animals were tested for spontaneous alternation performance in the YM, an index of spatial working memory. The YM was designed according to Itoh and collaborators (1993) and Hiramatsu and Inoue (1999) and is made of grey polyvinylchloride. Each arm is 40-cm long, 13-cm high, 3-cm wide at the bottom, 10-cm wide at the top, and converging at an equal angle. Each mouse was placed at the end of one arm and allowed to move freely through the maze during an 8-min session. The series of arm entries, including possible returns into the same arm, were checked visually. An alternation was defined as entries into all three arms on consecutive occasions. The number of maximum alternations is therefore the total number of arm entries minus two and the percentage of alternation was calculated as (actual alternations/maximum alternations)×100. Parameters included the percentage of alternation, called memory index, and total number of arm entries, called exploration index (Maurice et al., 1996, 1988; Meunier et al., 2006; Villard et al., 2009, 2011).\nAnimals showing an extreme behavior (alternation percentage <20% or >90% or number of arm entries <10) would have been discarded from the calculation. No animal was discarded accordingly."}},
  "note": "Several values for one entry are separate records, joined by “and”; a condition that tells them apart may be missing. Equal values may be shown once.",
  "data": [
    {"compound": "CC(C(O)c1ccc(O)cc1)N1CCC(Cc2ccccc2)CC1", "note": "(stereo not shown) [Ifenprodil]", "values": [
      {"measurement": "NMDA EPSCs amplitude", "setting": "[1]; NVP-AAM077 0.4 μM + Ifenprodil 3 μM", "value": "significantly decreased"},
      {"measurement": "Normalized amplitude of evoked isolated NMDA excitatory postsynaptic currents", "setting": "[2]", "value": "78.74 % of control"}
    ]},
    {"compound": "C[C@H](NC(c1cccc2[nH]c(=O)c(=O)[nH]c12)P(=O)(O)O)c1ccc(Br)cc1", "note": "(stereo partly shown) [NVP-AAM077]", "values": [
      {"measurement": "NMDA EPSCs amplitude", "setting": "[1]; NVP-AAM077 0.4 μM", "value": "significantly decreased"},
      {"measurement": "Normalized amplitude of evoked isolated NMDA excitatory postsynaptic currents", "setting": "[3]", "value": "56.35 % of control"}
    ]},
    {"compound": "CN1CCCC1c1cccnc1", "note": "(stereo not shown) [Nicotine, reference compound]", "values": [
      {"measurement": "Spontaneous alternations in T-maze", "setting": "[4]; PCP + 0.4 mg/kg i.p. 30 min before trial (D14), PCP alone 30.71, control 66.43, 0.4 mg/kg", "value": "62% and 62.14%"}
    ]},
    {"compound": "c1ccc(C2(N3CCCCC3)CCCCC2)cc1", "note": "[PCP, phencyclidine, reference compound]", "values": [
      {"measurement": "Spontaneous alternations in T-maze", "setting": "[4]; PCP 0.2 mg/kg s.c. twice daily D1-D11, vehicle-treated, saline control 66.43", "value": "31% and 30.71%"}
    ]},
    {"compound": "CN1[C@@H]2C[C@@H](OC(=O)[C@H](CO)c3ccccc3)C[C@H]1[C@@H]1O[C@@H]12", "note": "[Scopolamine, reference compound]", "values": [
      {"measurement": "spontaneous alternance in Y-maze", "setting": "[5]; scopolamine 0.5 mg/kg s.c. 30 min before test, alone, control 70, mean", "value": 45, "unit": "%"}
    ]},
    {"compound": "W-S-G-W-S-S-C-S-R-S-C-G [NX210] (WSGWSSCSRSCG; reduced linear form)", "values": [
      {"measurement": "effect on scopolamine-induced spatial short-term working memory impairments (Y-maze)", "setting": "[5]; 15 mg/kg i.p. once 48 h before the test", "value": "maintained but less pronounced"},
      {"measurement": "effect on scopolamine-induced spatial short-term working memory impairments (Y-maze)", "setting": "[5]; administered i.p. 2 h or 1 h before the test", "value": "No effect"},
      {"measurement": "effect on scopolamine-induced spatial short-term working memory impairments (Y-maze)", "setting": "[5]; dose lower than 10 mg/kg i.p.", "value": "No effect"},
      {"measurement": "dose with maximum effect on scopolamine-induced memory impairments (Y-maze)", "setting": "[5]; i.p. once 24 h before the test, bell-shaped dose-response curve", "value": 15, "unit": "mg/kg"},
      {"measurement": "spontaneous alternance in Y-maze", "setting": "[5]; scopolamine + 10 mg/kg i.p. 24 h before test, scopolamine alone 45, control 70, 10 mg/kg", "value": 59, "unit": "%"},
      {"measurement": "spontaneous alternance in Y-maze", "setting": "[5]; scopolamine + 15 mg/kg i.p. 24 h before test, scopolamine alone 45, control 70, 15 mg/kg", "value": 69, "unit": "%"}
    ]}
  ]
}
